Each compound was assayed against recombinant human MGAT2 (Homo sapiens (Human), UniProt Q3SYC2) (assay: Measurement of human MGAT2 inhibitory activity). Conditions: read-out: IC50 (concentration exhibiting 50% enzyme inhibition), Table 53.
Assay type: biochemical
Outline: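 RapidFire ESI-MS read-out of the diolein/diolein-d5 peak ratio gave % inhibition, with no-enzyme and full-enzyme wells as 100% and 0%. Reactions ran 1 h at room temperature at pH 7.4 (phosphate, 2 mmol/L DTT), using Flag-tagged human MGAT2 membranes from Sf9 cells and a substrate solution of 30 μmol/L 2-oleoylglycerol and 10 μmol/L oleoyl-CoA.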

Sequence of recombinant human MGAT2 (Q3SYC2 whole entry): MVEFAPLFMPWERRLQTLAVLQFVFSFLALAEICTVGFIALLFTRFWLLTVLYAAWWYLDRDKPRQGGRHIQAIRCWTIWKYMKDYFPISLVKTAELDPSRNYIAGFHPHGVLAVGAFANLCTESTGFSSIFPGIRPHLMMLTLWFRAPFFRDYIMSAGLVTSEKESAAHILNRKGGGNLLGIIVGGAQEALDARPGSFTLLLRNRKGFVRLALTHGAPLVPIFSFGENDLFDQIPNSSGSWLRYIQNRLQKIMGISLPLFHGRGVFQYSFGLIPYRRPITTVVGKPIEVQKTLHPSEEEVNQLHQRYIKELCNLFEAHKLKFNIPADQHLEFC

SMILES	IC50
N#Cc1ccc(-n2nc3c(c2C(=O)NCCC(F)(F)F)C(=O)N[C@@]2(CCc4cc(OCC(F)(F)F)ccc42)C3)nc1 [II-126]	12.7 nM
N#Cc1ccc(-n2nc3c(c2C(=O)NCC(N)=O)C(=O)N[C@@]2(CCc4cc(OCC(F)(F)F)ccc42)C3)nc1 [II-127]	39.2 nM
N#CCNC(=O)c1c2c(nn1-c1ccc(C#N)cn1)C[C@]1(CCc3cc(OCC(F)(F)F)ccc31)NC2=O [II-128]	10.2 nM
N#Cc1ccc(-n2nc3c(c2C(=O)NCC(O)c2ccccn2)C(=O)N[C@@]2(CCc4cc(OCC(F)(F)F)ccc42)C3)nc1 (some centres unmarked) [II-129]	202 nM
N#Cc1ccc(-n2nc3c(c2C(=O)N[C@H]2CC[C@H](O)CC2)C(=O)N[C@@]2(CCc4cc(OCC(F)(F)F)ccc42)C3)nc1 [II-130]	130 nM
N#Cc1ccc(-n2nc3c(c2C(=O)NCC2(CO)CC2)C(=O)N[C@@]2(CCc4cc(OCC(F)(F)F)ccc42)C3)nc1 [II-131]	5.79 nM
N#Cc1ccc(-n2nc3c(c2C(=O)NC2CCNC2=O)C(=O)N[C@@]2(CCc4cc(OCC(F)(F)F)ccc42)C3)nc1 (some centres unmarked) [II-132]	193 nM
N#Cc1ccc(-n2nc3c(c2C(=O)N[C@H]2CC[C@@H](O)C2)C(=O)N[C@@]2(CCc4cc(OCC(F)(F)F)ccc42)C3)nc1 [II-133]	188 nM
N#Cc1ccc(-n2nc3c(c2C(=O)NCCS(N)(=O)=O)C(=O)N[C@@]2(CCc4cc(OCC(F)(F)F)ccc42)C3)nc1 [II-134]	17.2 nM
CC(C)(O)CNC(=O)c1c2c(nn1-c1ccc(C#N)cn1)C[C@]1(CCc3cc(OCC(F)(F)F)ccc31)NC2=O [II-135]	60.6 nM
Cc1ccc(-n2nc3c(c2NC(=O)CS(C)(=O)=O)C(=O)N[C@@]2(CCc4cc(OCC(F)(F)F)ccc42)C3)cc1F [II-136]	7.42 nM
CS(=O)(=O)CC(=O)Nc1c2c(nn1-c1ccc(Cl)c(F)c1)C[C@]1(CCc3cc(OCC(F)(F)F)ccc31)NC2=O [II-137]	4.79 nM
Cc1ccc(-n2nc3c(c2NC(=O)CS(C)(=O)=O)C(=O)N[C@@]2(CCc4cc(OCC(F)(F)F)ccc42)C3)cn1 [II-138]	45.7 nM
Cc1cc(-n2nc3c(c2NC(=O)CS(C)(=O)=O)C(=O)N[C@@]2(CCc4cc(OCC(F)(F)F)ccc42)C3)nnc1C [II-139]	3.15 nM
Cc1cnnc(-n2nc3c(c2NC(=O)CS(C)(=O)=O)C(=O)N[C@@]2(CCc4cc(OCC(F)(F)F)ccc42)C3)c1 [II-140]	6.4 nM
CS(=O)(=O)CC(=O)Nc1c2c(nn1-c1ccc(OC(F)F)cc1)C[C@]1(CCc3cc(OCC(F)(F)F)ccc31)NC2=O [II-141]	12.8 nM
CS(=O)(=O)CC(=O)Nc1c2c(nn1-c1ccc(C#N)cn1)C[C@]1(CCc3cc(C(F)(F)F)ccc31)NC2=O [II-142]	4.03 nM
CS(=O)(=O)CC(=O)Nc1c2c(nn1-c1ccc(C#N)cn1)C[C@]1(CCc3cc(OCC(F)(F)F)ccc31)NC2=O [II-143]	0.706 nM
CS(=O)(=O)CC(=O)Nc1c2c(nn1-c1ccc(C#N)cn1)C[C@]1(CCc3cc(OCC(F)(F)F)c(F)cc31)NC2=O [II-144]	1.05 nM
CCOc1ccc2c(c1)OCC[C@]21Cc2nn(-c3ccc(C)cn3)c(NC(=O)CS(C)(=O)=O)c2C(=O)N1 [II-145]	6.43 nM
Cc1ccc(-n2nc3c(c2NC(=O)CS(C)(=O)=O)C(=O)N[C@@]2(CCOc4cc(OCC(F)F)ccc42)C3)nc1 [II-146]	2.55 nM
Cc1ccc(-n2nc3c(c2NC(=O)CS(C)(=O)=O)C(=O)N[C@@]2(CCOc4cc(Cl)ccc42)C3)nc1 [II-147]	4.92 nM

SMILES	IC50
Cc1cc(-n2nc3c(c2NC(=O)CS(C)(=O)=O)C(=O)N[C@@]2(CCc4cc(OCC(F)(F)F)ccc42)C3)ccc1C#N [II-148]	12.3 nM
Cc1cc(-n2nc3c(c2NC(=O)CS(C)(=O)=O)C(=O)N[C@@]2(CCc4cc(OCC(F)(F)F)ccc42)C3)ccc1F [II-149]	9.01 nM
Cc1cc(-n2nc3c(c2NC(=O)CS(C)(=O)=O)C(=O)N[C@@]2(CCOc4cc(OCC(F)(F)F)ccc42)C3)no1 [II-150]	1.33 nM
CS(=O)(=O)CC(=O)Nc1c2c(nn1CCC1CC1)C[C@]1(CCc3cc(OCC(F)(F)F)c(F)cc31)NC2=O [II-152]	1.96 nM
Cc1ccc(-n2nc3c(c2NC(=O)CS(C)(=O)=O)C(=O)N[C@@]2(CCOc4cc(OC(C)C)ccc42)C3)nc1 [II-153]	4.94 nM
Cc1ccc(-n2nc3c(c2NC(=O)CS(C)(=O)=O)C(=O)N[C@@]2(CCOc4cc(N5CC(F)(F)C5)ccc42)C3)nc1 [II-154]	5.58 nM
Cc1ccc(-n2nc3c(c2NC(=O)CS(C)(=O)=O)C(=O)N[C@@]2(CCc4cc(C5CC5)ccc42)C3)nc1 [II-156]	3.6 nM
Cc1ccc(-n2nc3c(c2NC(=O)CS(C)(=O)=O)C(=O)N[C@@]2(CCc4cc(OCC(C)(F)F)ccc42)C3)nc1 [II-157]	3.83 nM
Cc1ccc(-n2nc3c(c2NC(=O)CS(C)(=O)=O)C(=O)N[C@@]2(CCc4cc(OCC(F)F)ccc42)C3)nc1 [II-158]	8.06 nM
CCOc1ccc2c(c1)CC[C@]21Cc2nn(-c3ccc(C)cn3)c(NC(=O)CS(C)(=O)=O)c2C(=O)N1 [II-159]	7.02 nM
Cc1ccc(-n2nc3c(c2NC(=O)CS(C)(=O)=O)C(=O)N[C@@]2(CCc4cc(OC(C)C)ccc42)C3)nc1 [II-160]	7.69 nM
Cc1ccc(-n2nc3c(c2NC(=O)CS(C)(=O)=O)C(=O)N[C@@]2(CCc4cc(OCC(C)(C)F)ccc42)C3)nc1 [II-161]	4.67 nM
Cc1ccc(-n2nc3c(c2NC(=O)CS(C)(=O)=O)C(=O)N[C@@](c2ccc(OCC(F)(F)F)cc2F)(C(F)(F)F)C3)nc1 [II-162]	5.67 nM
CS(=O)(=O)CC(=O)Nc1c2c(nn1-c1ccc(C#N)cn1)C[C@]1(CCc3c1ccc(OCC(F)(F)F)c3F)NC2=O [II-163]	6.1 nM
Cc1ccc(-n2nc3c(c2NC(=O)CS(C)(=O)=O)C(=O)N[C@@]2(CCc4cc(Cl)ccc42)C3)nc1 [II-164]	7.55 nM
Cc1ccc(-n2nc3c(c2NC(=O)CS(C)(=O)=O)C(=O)N[C@@]2(CCc4ccccc42)C3)nc1 [II-165]	26.9 nM
CS(=O)(=O)CC(=O)Nc1c2c(nn1CCC1CC1)C[C@]1(CCc3c1ccc(OCC(F)(F)F)c3F)NC2=O [II-166]	20.8 nM
Cc1cc(-n2nc3c(c2NC(=O)CS(C)(=O)=O)C(=O)N[C@](C)(c2ccc(OCC(F)(F)F)cc2F)C3)no1 [II-167]	3.63 nM
Cc1cc(-n2nc3c(c2NC(=O)CS(C)(=O)=O)C(=O)N[C@@]2(CCc4cc(OCC(F)(F)F)ccc42)C3)on1 [II-169]	7.38 nM
CNC(=O)c1c2c(nn1-c1ccc(C#N)cn1)C[C@]1(CCc3cc(OCC(F)(F)F)ccc31)NC2=O [II-170]	46.7 nM
Cc1ccc(-n2nc3c(c2C(=O)NCCS(N)(=O)=O)C(=O)N[C@@]2(CCc4cc(OCC(F)(F)F)ccc42)C3)nc1 [II-171]	9.64 nM
CS(=O)(=O)CC(=O)Nc1c2c(nn1-c1ccc(C#N)cn1)C[C@]1(CCc3cc(C4CC4)ccc31)NC2=O [II-172]	1.46 nM

SMILES	IC50
CS(=O)(=O)CC(=O)Nc1c2c(nn1CCCOC(F)F)C[C@]1(CCc3cc(OCC(F)(F)F)ccc31)NC2=O [II-173]	1.34 nM
CS(=O)(=O)CC(=O)Nc1c2c(nn1-c1ccccc1)C[C@]1(CCc3cc(OCC(F)(F)F)ccc31)NC2=O [II-175]	25.4 nM
Cc1ccc(-n2nc3c(c2NC(=O)CS(C)(=O)=O)C(=O)N[C@](C)(c2ccc(Cl)cc2F)C3)nc1 [II-176]	8.32 nM
Cc1ccc(-n2nc3c(c2NC(=O)CS(C)(=O)=O)C(=O)N[C@](C)(c2ccc(N4CC(F)(F)C4)cc2F)C3)nc1 [II-177]	5.86 nM
N#Cc1ccc(-n2nc3c(c2C(=O)NCCF)C(=O)N[C@@]2(CCc4cc(OCC(F)(F)F)ccc42)C3)nc1 [II-178]	59.7 nM
N#Cc1ccc(-n2nc3c(c2C(=O)NCC2CC2)C(=O)N[C@@]2(CCc4cc(OCC(F)(F)F)ccc42)C3)nc1 [II-179]	10.1 nM
N#Cc1ccc(-n2nc3c(c2C(=O)NCCO)C(=O)N[C@@]2(CCc4cc(OCC(F)(F)F)ccc42)C3)nc1 [II-180]	58.5 nM
CNC(=O)CNC(=O)c1c2c(nn1-c1ccc(C#N)cn1)C[C@]1(CCc3cc(OCC(F)(F)F)ccc31)NC2=O [II-181]	28.7 nM
CS(C)(=O)=NCCNC(=O)c1c2c(nn1-c1ccc(C#N)cn1)C[C@]1(CCc3cc(OCC(F)(F)F)ccc31)NC2=O [II-182]	477 nM
N#CCCNC(=O)c1c2c(nn1-c1ccc(C#N)cn1)C[C@]1(CCc3cc(OCC(F)(F)F)ccc31)NC2=O [II-183]	35.5 nM
CC(F)(F)CNC(=O)c1c2c(nn1-c1ccc(C#N)cn1)C[C@]1(CCc3cc(OCC(F)(F)F)ccc31)NC2=O [II-184]	4.06 nM
N#Cc1ccc(-n2nc3c(c2C(=O)NCCSC(F)(F)F)C(=O)N[C@@]2(CCc4cc(OCC(F)(F)F)ccc42)C3)nc1 [II-185]	28.2 nM
CC1(CNC(=O)c2c3c(nn2-c2ccc(C#N)cn2)C[C@]2(CCc4cc(OCC(F)(F)F)ccc42)NC3=O)COC1 [II-186]	2.92 nM
N#Cc1ccc(-n2nc3c(c2C(=O)NCC2CCO2)C(=O)N[C@@]2(CCc4cc(OCC(F)(F)F)ccc42)C3)nc1 (some centres unmarked) [II-187]	24.5 nM
N#Cc1ccc(-n2nc3c(c2C(=O)NC2CC(F)(F)C2)C(=O)N[C@@]2(CCc4cc(OCC(F)(F)F)ccc42)C3)nc1 [II-188]	5.01 nM
N#Cc1ccc(-n2nc3c(c2C(=O)NC2CS(=O)(=O)C2)C(=O)N[C@@]2(CCc4cc(OCC(F)(F)F)ccc42)C3)nc1 [II-189]	3.06 nM
N#Cc1ccc(-n2nc3c(c2C(=O)NCC2(C#N)CC2)C(=O)N[C@@]2(CCc4cc(OCC(F)(F)F)ccc42)C3)nc1 [II-190]	6.35 nM
N#Cc1ccc(-n2nc3c(c2C(=O)NCC2(C(F)(F)F)CC2)C(=O)N[C@@]2(CCc4cc(OCC(F)(F)F)ccc42)C3)nc1 [II-191]	91.2 nM
N#Cc1ccc(-n2nc3c(c2C(=O)NCC2(C(F)F)CC2)C(=O)N[C@@]2(CCc4cc(OCC(F)(F)F)ccc42)C3)nc1 [II-192]	3.48 nM
CCO[C@H]1C[C@H](n2nc3c(c2NC(=O)CS(C)(=O)=O)C(=O)N[C@@]2(CCc4cc(OCC(F)(F)F)ccc42)C3)C1 [II-193]	33.7 nM
CS(=O)(=O)CC(=O)Nc1c2c(nn1CCCOC(F)F)C[C@@]1(CCc3cc(OCC(F)(F)F)ccc31)NC2=O [II-194]	1.55 nM

From patent publication US11198695B2, “Fused ring derivative having MGAT-2 inhibitory activity” (Shionogi & Co., Ltd., priority 2017, dated 2021)
